Data as given in PMC7358406, “Molecular and Biochemical Characterization of Salt-Tolerant Trehalose-6-Phosphate Hydrolases Identified by Screening and Sequencing Salt-Tolerant Clones From the Metagenomic Library of the Gastrointestinal Tract” (Frontiers in Microbiology, 2020).

Columns and labels:
[1] = tested on: T1, rTRE_P3 (TRE_P3), trehalose-6-phosphate hydrolase; experiment: p-nitrophenol release, A410, initial rates; type: biochemical, Staphylococcus warneri; conditions: 50 mM HEPES-NaOH pH 7.5 and 100 mM NaCl (standard assay), 30°C; pNPG 0.5-10 mM
T1 construct: full length without signal peptide, gene 1644 bp

[2] = tested on: T2, rTRE_P2 (TRE_P2), trehalose-6-phosphate hydrolase; experiment: p-nitrophenol release, A410, initial rates; type: biochemical, Staphylococcus warneri; conditions: 50 mM HEPES-NaOH pH 7.5 and 100 mM NaCl (standard assay), 30°C; pNPG 0.5-10 mM
T2 construct: full length without signal peptide, gene 1638 bp

Structure (SMILES): O=[N+]([O-])c1ccc(O[C@H]2O[C@H](CO)[C@@H](O)[C@H](O)[C@H]2O)cc1 [p-nitrophenyl-α-D-glucopyranoside]
- Km [1]: 12.5 mM
- Km [2]: 15.6 mM
